Measurements: patent US20110207741A1, “Activation of the Renin-Angiotensin System (RAS) and Sudden Cardiac Death” (THE BOARD OF TRUSTEES OF THE UNIVERSITY OF ILLINOIS, priority 2010, published 2011)
Values joined by “and” are separate entries in the source; they are usually repeats but may differ in a detail not shown here. Equal entries are not always repeated.

Legend:
[1] = test system: Cx43; assay: Western blot of ventricular tissue, Cx43; format: in vivo, mouse
Procedure: (§1) The animal experiments were conducted according to the National Institutes of Health (NIH) Guide for the Care and Use of Experimental Animals and were approved by the University of Illinois Institutional Animal Care and Use Committee. Mice of both sexes were treated with 1.5-mg/kg PP1 (Enzo Life Sciences, Plymouth Meeting, Pa.), a specific inhibitor of c-Src tyrosine kinase, twice weekly for 4 consecutive weeks by intraperitoneal injection (21-23). PP3 (Enzo Life Sciences) was administered intraperitoneally at the same dose (1.5 mg/kg twice weekly for 4 consecutive weeks). The treatment of all animals was initiated when the mice were 30 days old.
The mice were killed, and their hearts were excised. The ventricular tissue was homogenized in a buffer containing 20 mM of tris-(hydroxymethyl)-aminomethane (Tris-C1) (pH, 7.4), 150 mM of sodium chloride (NaCl), 2.5 mM of ethylenediamine tetraacetic acid (EDTA), 1% Triton-100, 10 μL/mL of phenylmethylsulfonyl fluoride (PMSF), 10 μL/mL of protein inhibitor cocktail (Pierce, Rockford, Ill.), and 10 μL/mL of phosphatase inhibitor cocktail II (Sigma-Aldrich, St. Louis, Mo.). Protein samples (5 to 20 μg) were separated via 10% sodium dodecyl sulfate polyacrylamide gel electrophoresis (SDS-PAGE) and were transferred to nitrocellulose membranes. The membranes were blotted with the primary antibodies against c-Src, phosphorylated (Tyr 416) c-Src, and Cx43 (Cell Signaling, Danvers, Mass.). For a loading control, the membranes were blotted with a primary antibody against glyceraldehyde-3-phosphate dehydrogenase (GAPDH; Santa Cruz Biotech, Santa Cruz, Calif.). After treatment with secondary antirabbit or antimouse antibodies, imaging was performed with enhanced chemiluminescence. The radiographic film images were scanned and analyzed with NIH ImageJ software.

[2] = test system: gap junctions; assay: Functional assessment of Cx43: Lucifer yellow dye spread in intact heart muscle; format: in vivo, mouse; conditions: hearts of treated ACE8/8 mice
Procedure: as §1
We used an established technique for measuring Cx43 function that involves fluorescent dye introduction and diffusion in intact heart muscle (26). Fresh hearts were obtained from wild-type, ACE8/8, ACE8/8 PP1-treated, and ACE8/8 PP3-treated mice. A sample from each heart was placed in phosphate buffered saline at 37° C., the anterior surface of the LV was punctured with a 27-gauge needle, and the sample was incubated with a droplet of 0.5% Lucifer yellow (LY) and a droplet of 0.5% Texas Red Dextran (TRD) in 150 mM of LiCl solution. […] Dye spread in longitudinal and transverse directions was assessed.

[3] = molecular target: T1, phosphorylated (Tyr 416) c-Src (Mus musculus, UniProt P05480); assay: Western blot of ventricular tissue, phospho-(Tyr416) c-Src; format: in vivo; conditions: four weeks i.p. treatment, corrected for GAPDH
T1 construct: The ventricular tissue was homogenized in a buffer; from tissue; host or cells: mouse ventricular tissue (wild-type and ACE8/8 mice)
Procedure: as §1
(§2) The mice were killed, and their hearts were excised. The ventricular tissue was homogenized in a buffer containing 20 mM of tris-(hydroxymethyl)-aminomethane (Tris-C1) (pH, 7.4), 150 mM of sodium chloride (NaCl), 2.5 mM of ethylenediamine tetraacetic acid (EDTA), 1% Triton-100, 10 μL/mL of phenylmethylsulfonyl fluoride (PMSF), 10 μL/mL of protein inhibitor cocktail (Pierce, Rockford, Ill.), and 10 μL/mL of phosphatase inhibitor cocktail II (Sigma-Aldrich, St. Louis, Mo.). Protein samples (5 to 20 μg) were separated via 10% sodium dodecyl sulfate polyacrylamide gel electrophoresis (SDS-PAGE) and were transferred to nitrocellulose membranes. […] The radiographic film images were scanned and analyzed with NIH ImageJ software.

[4] = test system: ACE8/8 mice; assay: Electrophysiology study: VT inducibility by burst pacing; format: in vivo, mouse; conditions: treated ACE8/8 mice, untreated ACE8/8 86.9%, wild-type 3.3%
Procedure: as §1
The mice were anesthetized with an intraperitoneal injection of ketamine (100 mg/kg) and xylazine (5 mg/kg). After cutdown, a 1.1-F catheter with 0.5-mm interelectrode spacing (EPR 800, Millar Instruments, Houston, Tex.) was placed into the right jugular vein and was advanced into the right ventricle. A constant current stimulator (A320, World Precision Instruments, Sarasota, Fla.) connected to a laptop computer was used for cardiac stimulation. During the experiment, body temperature was maintained at 37° C. with a warming pad. Burst pacing at cycle lengths of 100 to 50 ms was used to test for VT inducibility. A rhythm with more than 3 consecutive ventricular beats was considered to be VT.

[5] = test system: Cx43; assay: Immunohistochemistry (immunostaining) for Cx43 in mouse hearts; format: in vivo
Procedure: as §1
The mouse hearts were fixed in 10% formalin, after which 8-μm thick sections were blocked for 1 hour at room temperature and were then incubated with anti-Cx43 antibodies overnight at 4° C. at concentrations known to provide the best signal-to-noise ratio. The slides were reviewed with a Zeiss Axioskop microscope (Carl Zeiss, Inc, Thornwood, N.Y.), and photomicrographs with original magnification×40 were taken from the apex, the mid-left ventricle (LV), and the LV base. From each of those sites, photomicrographs were taken from the endocardium and epicardium. The Cx43 content was quantified with the use of a grid that divided the field of view into 200 squares. At the intersection points aligning with the intercalated disks, Cx43 was scored as “1” (present) or “0” (absent). The results were expressed as the percentage occupied by Cx43 in the total area examined, excluding pseudospaces. This method has been used previously to quantify levels of collagen and Cx43 in cardiac tissue (24; 25).

[6] = molecular target: T2, c-Src (Mus musculus, UniProt P05480); assay: Western blot of ventricular tissue, total c-Src; format: in vivo; conditions: four weeks i.p. treatment, corrected for GAPDH
T2 construct: The ventricular tissue was homogenized in a buffer; from tissue; host or cells: mouse ventricular tissue (wild-type and ACE8/8 mice)
Procedure: as §1, §2

[7] = test system: ACE8/8 mice; assay: Kaplan-Meier survival analysis of ACE8/8 mice (sudden cardiac death); format: in vivo, mouse; conditions: 1.5 mg/kg intraperitoneal twice weekly, 30 days of treatment and observation, untreated ACE8/8 10.2±1.5 days
Procedure: Previously, a transgenic mouse model of RAS activation was developed by overexpressing ACE restricted to the heart (ACE8/8 mice) via replacement of the somatic ACE promoter with the cardiac-specific α-myosin heavy chain promoter (9). These mice (ACE8/8) are not hypertensive, have structurally normal hearts with a normal left ventricular ejection fraction (LVEF), and have no ventricular fibrosis.
as §1
The values are presented as the mean±the SEM. […] The survival data were analyzed with the Kaplan-Meier method, and the value was calculated with the log-rank test. The correlation was assessed with the Pearson correlation coefficient method.

[8] = test system: wild-type mice; assay: Treatment of wild-type mice with PP1 (deaths, adverse reactions); format: in vivo, mouse
Procedure: as §1

T2 sequence (P05480 whole entry): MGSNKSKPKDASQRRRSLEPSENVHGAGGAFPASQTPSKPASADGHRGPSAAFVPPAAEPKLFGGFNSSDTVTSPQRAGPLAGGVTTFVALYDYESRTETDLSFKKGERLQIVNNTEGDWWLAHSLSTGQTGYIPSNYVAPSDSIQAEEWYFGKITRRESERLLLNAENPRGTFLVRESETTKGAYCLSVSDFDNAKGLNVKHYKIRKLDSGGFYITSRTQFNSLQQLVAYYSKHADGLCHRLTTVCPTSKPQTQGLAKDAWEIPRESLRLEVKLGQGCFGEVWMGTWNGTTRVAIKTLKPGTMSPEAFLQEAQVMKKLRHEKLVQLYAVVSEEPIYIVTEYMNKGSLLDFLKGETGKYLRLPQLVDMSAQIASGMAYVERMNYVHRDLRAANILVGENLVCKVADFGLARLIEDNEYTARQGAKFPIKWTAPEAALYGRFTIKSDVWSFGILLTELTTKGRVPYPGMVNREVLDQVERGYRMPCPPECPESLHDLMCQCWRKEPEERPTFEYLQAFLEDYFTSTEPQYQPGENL
T1 sequence (P05480 whole entry): as above

Compound | increase in Cx43 protein level vs untreated ACE8/8 mice (Western blot) ([1]; ACE8/8 mice, four weeks i.p. treatment) | Cx43 level relative to normal level in wild-type mice (Western blot) ([1]; treated ACE8/8 mice, untreated ACE8/8 36%) | overall Lucifer yellow dye spread ([2]; untreated ACE8/8 0.14±0.01 mm, WT 0.21±0.02 mm) | phospho-(Tyr416) c-Src protein level, relative to untreated ACE8/8 mice [3] | VT inducibility rate [4] | increase in Cx43 level/content in ACE8/8 mouse hearts (immunostaining) ([5]; vs untreated ACE8/8 mice) | total c-Src protein level, relative to untreated ACE8/8 mice [6] | mean survival time [7] | death in treated wild-type mice ([8]; WT mice receiving PP1 1.5 mg/kg i.p. twice weekly for 4 weeks) | adverse reaction in treated wild-type mice ([8]; wild-type mice, PP1 1.5 mg/kg i.p. twice weekly for 4 weeks) | effect on total Cx43 protein level (Western blot), in words ([1]; ACE8/8 mice vs untreated ACE8/8) | effect on dye diffusion, in words [2] | Cx43 level, ratio of stained area for Cx43 to total field of view ([5]; treated ACE8/8 mice, untreated ACE8/8 5.4±0.7%, wild-type 18.3±0.6%) | effect on Cx43 level at the gap junctions (immunostaining), in words ([5]; vs untreated ACE8/8 mice)
Cc1ccc(-c2nn(C(C)(C)C)c3ncnc(N)c23)cc1 [PP1, 1-(1,1-dimethylethyl)-1-(4-methylphenyl)-1H-pyrazolo[3,4-d]pyrimidin-4-amine] | 2.1 fold | 68% | 0.20±0.02 mm and 0.21±0.02 mm | 75% | 50% | 2 fold and 2.0 fold | 58% | 24.7 ± 0.2 days | No death happened | not associated with any adverse reaction |  |  |  | 
Nc1ncnc2c1cnn2-c1ccccc1 [PP3, 1-phenyl-1H-pyrazolo[3,4-d]pyrimidin-4-amine] |  |  |  |  |  |  |  | 11.2 ± 1.2 days |  |  | did not increase | no statistically significant effect | 6.5+/−1% | did not increase
